Laboratory results: patent US20230130621A1, “APPLICATION OF AGENT IN PREPARATION OF MEDICINE FOR TREATING/INHIBITING PSORIASIS” (priority 2021, published 2023)

What was measured:
[1] = system: endothelial cells; test: dsDNA in exosomes released by endothelial cells stimulated by cytokines; type: cell-based; conditions: cytokine stimulation; FIG. 17, 18
Source text: The dsDNA in exosomes released by endothelial cells stimulated by cytokines TNFα and IL17 was detected.

[2] = system: mouse; test: IL-1b injection into ears of the mouse; type: in vivo; conditions: injected into ears of the mouse; FIG. 26, 27
Source text: dsDNA-AIM2 finally released the cytokine IL-1b to act on the body.

Row | Substance | dsDNA content in exosomes released by endothelial cells [1] | psoriasis-like response in a mouse (skin phenotype, spleen, pathology) [2]
1 | IL17: cytokine IL17, clinically relevant cytokine for psoriasis | significantly stimulated the dsDNA content in exosomes released by endothelial cells | 
2 | IL-1b: cytokine interleukin 1b |  | cause psoriasis-like skin phenotype, spleen enlargement and pathological changes
3 | TNFα | significantly stimulated the dsDNA content in exosomes released by endothelial cells | 
